Patent US20250025439A1, “DERIVATIVES OF NIFUROXAZIDE FOR USE IN THE TREATMENT OF MITOCHONDRIAL DISORDERS AND NEURODEGENERATIVE DISEASES” (priority 2021, published 2025)

How the values were obtained:
Format in all cases: cell-based, human
[1] = test system: CHCHD10^S59L/+ fibroblasts; assay: Mitochondrial network analysis after KIF5B siRNA transfection; conditions: patient cells, NFX 5 μM, 72 h
Procedure: (§1) Cells were incubated with MitoTracker red (Invitrogen) as previously described (Genin et al., EMBO Mol. Med., 2016, 8, 58-72). Fibroblasts were plated on a glass slide in a 60 mm dish. For the mitochondrial staining, the fibroblasts were incubated with MitoTracker Red (Invitrogen) (100 nM) during 15 minutes at 37° C. Then the medium was replaced by fresh medium for two hours at 37° C. The cells were fixed using Paraformaldehyde (Electron Microscopy Science) (4%) diluted in medium, 20 minutes at 37° C. The cells were then washed with PBS and mounted with Prolong Gold Antifade Reagent (Molecular Probes). The slides were analysed using a confocal microscope (Zeiss LSM 880). […] The images were deconvoluted with Huygens Essential Software™ (Scientific Volume Imaging) using a theoretically calculated point spread function (PSF) for each of the dyes. All selected images were iteratively deconvolved with maximum iterations scored 40 and a quality threshold at 0.05. The deconvolved images were used for quantitative mitochondrial network analysis with Huygens Essentiel Software™ with the following standardised set of parameters: threshold=15% and seed=10% for each cell types and garbage=10. The quantitative data were further analysed in Microsoft Excel and GraphPad Prism 8 (GraphPad Software). Mitochondrial network length was quantified for 30 randomly-selected individual cells. […]

STAT3 = assay: Western blot of STAT3 expression after treatment; conditions: patient and control fibroblasts, NFX 1 or 5 μM, 72 h
Procedure: The concentration of proteins was determined using the Pierce BCA assay kit (Thermo Fisher Scientific). 20 μg of total protein extracts were separated on acrylamide-SDS gels and transferred to PVDF membranes (Millipore). Signals were detected using a chemoluminescence system (Immobilon Western HRP Chemilumiscent substrates, Millipore). ImageJ was used to quantify protein signals. Nifuroxazide (46494-100MG Sigma) was resuspended in DMSO at 50 mM and stocked at −20° C. For each treatment, the Nifuroxazide was diluted in complete medium (Dulbecco's Modified Eagle Medium supplemented with 10% FBS, penicillin (100 U/mL) and streptomycin (0.1 mg/mL)) at the desired concentration. The cell medium was discarded and replaced by the medium with Nifuroxazide. 72 h hours after treatment, the cells were analysed.

[2] = test system: CHCHD10^S59L/+ fibroblasts; assay: Mitochondrial network analysis after STAT3 siRNA transfection; conditions: STAT3 siRNA transfected fibroblasts
Procedure: as §1

patient motor neurons = assay: Electron microscopy of mitochondrial morphology in iPSC-derived motor neurons; conditions: NFX 0.5 μM, 72 h
Procedure: Cells were seeded on 24 wells/plate, fixed with 1.6% glutaraldehyde in 0.1 M cacodylate buffer (pH 7.4) for 2 hours, rinsed and postfixed in 1% osmium tetroxide and 1% potassium ferrocyanide in 0.1 M cacodylate buffer before to processed for ultrastructure as previously described (Bannwarth et al., Brain, 2014, 137, 2329-2345). The protocol for contrasting sections was slightly modified, using a 5% Lanthanide salt solution (a mixture of Gadolinium acetate and Samarium acetate) for 7 minutes instead of uranium acetate. The cells were examined under a JEOL 1400 transmission electron microscope. The ultrastructure of mitochondria was classified in three categories. Normal: the mitochondria have numerous, parallel and well organized cristae. Intermediary: the mitochondria have less cristae, they show few round or swollen cristae or have a mild disorganisation. Abnormal: the mitochondria have swollen, disorganized or no cristae. More than 100 mitochondria were classified per condition. iPSC clones were generated from human fibroblasts as previously described (Genin et al., Acta Neuropathol., 2019, 138, 123-145). Motor neurons were differentiated from iPSC using previously described and validated protocols with some modifications. Briefly, iPSC clones were detached by Accutase treatment to form small clusters. […]

Mic60 and Miro1 = assay: Proximity ligation assay Mic60/Miro1; conditions: patient fibroblasts, NFX 5 μM
Procedure: Fibroblasts were seeded in 16-well Lab-Tek chambers slides (Nunc). For mitochondrial staining, cells were incubated in a 100 nM solution of MitoTracker Red CMXRos (Invitrogen) for 15 min. Cells were fixed with PFA 4% for 20 min at 37° C. and permeabilised with 2% Triton X-100 for 10 min. Then coverslips were saturated with 5% BSA for 45 min at RT. All antibodies were diluted with PBS-BSA 5%. Fibroblasts were incubated in the presence of convenient couple of primary antibodies for 1 h at RT. After PBS washes, incubation with appropriate PLA probe (PLA probe anti rabbit MINUS, PLA probe anti mouse PLUS), hybridization, ligation and amplification were done using the DuoLink In Situ Detection Reagents Green (Olink Biosciences) following manufacturer's instructions. Finally, the samples were mounted on glass slides using Prolong Gold Antifade Reagent (Molecular Probes). Images were captured with a ZEISS LSM 880 confocal laser-scanning microscope and analyzed using Huygens Essential Software™ (Scientific Volume Imaging). Data are represented as mean±SEM. Negative control experiments (with one antibody omitted) were performed in parallel and checked to result in the absence of PLA signal (FIG. 1). […]

O=C(N/N=C/c1ccc([N+](=O)[O-])o1)c1ccc(O)cc1 [NFX, (E)-4-hydroxy-N′-((5-nitrofuran-2-yl)methylene)benzohydrazide]
effect on the mitochondrial network after inactivation of KIF5B [1]: no longer has an effect | STAT3 protein level (STAT3): dose-dependent decrease | pSTAT3Y705 protein level (STAT3): dose-dependent decrease | effect on mitochondrial network length after STAT3 depletion [2]: without preventing the positive effect | mitochondrial morphology and cristae shape (EM) (patient motor neurons): improved | number of PLA spots Mic60/Miro1 (Mic60 and Miro1): significant increase
